Patent US20260083126A1, “ANTIMICROBIAL COMPOSITIONS” (AHV International B.V., priority 2022, published 2026)
In brackets after ≈: the same amount, converted by molar mass. Several values for one entry are separate records, joined by “and”; a condition that tells them apart may be missing. Equal values may be shown once. Read-outs that look alike come from different tables or passages of the source.

How the values were obtained:
[1] = system: Staphylococcus epidermidis ATCC 35984; assay: MIC assay (growth inhibition of planktonic microorganisms); type: cell-based; details: 24 h at 37° C., MHB-II; for MIC50 / MIC90: Staphylococcus epidermidis, ATCC35984; for MIC50 / S. epidermidis MIC50: reduction of final OD600 by 50%; for MIC50: read-out: S. epidermidis MIC50; for MIC90 / S. epidermidis MIC90: reduction of final OD600 by 90%; for MIC90: read-out: S. epidermidis MIC90
Procedure: (§1) The exact weighed amount was noted and the volume of solvent to reach a 80 mM dilution calculated. Half of the volume was added first, by adding Tween 80 and let stand for 5 minutes. In a second step, the other half of the volume DMSO was added and resuspended to help the dilution process. The closed tube was inverted 5-10 times and then vortexed very thoroughly for at least 30 seconds. If after this procedure crystals were still visible, the tube was placed in a shaker at 37° C. at 150 rpm for at least 30 minutes (it is indicated if the dissolution period was longer than 2 h). […] In case of Bis(4-Chlorophenyl) thiosulfonate, a lower concentrated stock solution of 2 mM needed to be prepared. For that, the required amount of compound was weighed in and 2% v/v Tween80 and 2% v/v DMSO of the end volume of the stock solution was added to the substance. This mix was heated in a water bath set to 40° C. and occasionally shaken. When the whole amount of the substance reached dissolution, the volume was filled up with growth medium until the end volume. This 2 mM stock solution of Bis(4-Chlorophenyl) thiosulfonate was used in the MIC plate and diluted two-fold, resulting in a testing range of Bis(4-Chlorophenyl) thiosulfonate from 1 mM to 0.002 mM.
(§2) The microorganisms as indicated in Table 4 were used to inoculate a tryptic soy agar (TSA) plate and incubated overnight at 37° C. After incubation 3-5 well-isolated colonies with the same morphology were selected from the TSA plate and resuspended in 2 mL 0.9% saline solution with 3-6 glass beads and vortexed. The optical density at 600 nm (OD600) of the bacterial suspension was measured with a spectrophotometer (Evolution™ 201/220 UV-Visible Spectrophotometer, Thermo Fisher Scientific) and diluted to an OD600 of 0.0008, which resembles 10^6 CFU/mL.
(§3) The MIC assay was performed in a flat-bottom 96-microtiter plate. 50 μL of MHB-II was added into columns 2-11, and 100 μL to column 12 for sterility control. 100 μL of the 8 mM test compound solution (method 1) was added to column 1. A two-fold dilution series of the solution in MHB-II was achieved by resuspending 50 μL of the 8 mM solution from column 1 to column 2. This step was repeated until column 10. The respective concentration of Tween 80 and DMSO in column 1 was 2.5%, which is two-fold diluted throughout the plate. 50 μL of the bacterial suspension was added to column 1-11. The microtiter plates were sealed with adhesive polyethylene film for sealing microplates (Diversified Biotech) and incubated for 24 h at 37° C. After incubation the OD was measured at 600 nm with the Varioskan (Thermo Fisher Scientific). The minimal concentration which causes reduction of final OD600 of the bacterial culture by 50% (MIC50) and by 90% (MIC90) was calculated after normalization of the obtained OD values to the growth control in column 11. This assay was repeated three times in three independent experiments.

[2] = system: Pseudomonas aeruginosa ATCC 27853; assay: as above; type: cell-based; details: for MIC50 / MIC90: Pseudomonas aeruginosa; for MIC50: ATCC27853, 24 h, read-out: P. aeruginosa MIC50; for MIC50 / P. aeruginosa MIC50: reduction of final OD600 by 50%; for MIC90: ATCC27853
Procedure: as §1, §2, §3
Hereafter, the stock solutions of the compounds were used in three repetitions in a minimal inhibitory concentration (MIC) assay at a 2-fold dilution range with various bacteria from the gram-positive and gram-negative group and a yeast, Candida albicans. The concentrations that show only less than 10% growth after 24 h were considered the MIC90-values, whereas the concentrations that show 50% growth after 24 h when compared to the bacterial growth control were considered the MIC50-values. Escherichia coli and Staphylococcus aureus were used as representatives for a gram-negative bacteria and gram-positive bacteria, respectively. Furthermore, the yeast C. albicans was also tested.
In an Eppendorf tube between 10-20 mg of the test compound was weighed. Hereafter, the required amount of Tween 80 was added, followed by the amount DMSO. After vigorous shaking, the dissolved and transparent dilutions were diluted 10 times with Mueller Hinton Broth (MHB) for the MIC assay. […]

[3] = system: Staphylococcus epidermis ATCC 35984 biofilm; assay: MBEC assay (48 h biofilm, CFU log reduction); type: cell-based, Staphylococcus epidermidis; details: 20 h treatment, 0.125-1 mM tested
Procedure: (§4) For the MBEC assay (method 1.3) the solutions need to be diluted to a final concentration of 2 mM in 0.9% saline solution and then further diluted to 1 mM, 0.5 mM, 0.25 mM and 0.125 mM in saline. Those dilutions were added as treatment to the 96 well plates with the grown biofilm (see method 3) (0.5 mL needed for one strain). The dilution must stay transparent.
(§5) Frozen aliquots of Staphylococcus epidermis ATCC 35984 and Pseudomonas aeruginosa ATCC 27853 were used to inoculate 20 mL of Tryptic Soy Broth (TSB) in a 100 mL Erlenmeyer flask at 37° C. and 150 rpm and incubated overnight (Infors). The OD600 of the overnight culture was measured with a spectrophotometer (Evolution™ 201/220 UV-Visible Spectrophotometer, Thermo Fisher Scientific) and diluted to an ( ) 600 of 0.2, which resembles 10^8 CFU/mL. The cell suspension of OD600=0.2 was seeded into a U-bottom-shaped 96 well plates by pipetting 100 μL per well in column 1-11, column 12 was filled with 100 μL medium as sterility control. The 96 well plates were sealed with adhesive polyethylene film for sealing microplates and incubated for 48 h at 37° C. at static conditions. After the biofilm growth phase, 100 μL of treatment solutions (method 1) were added to the vials resulting in treatment concentrations of 1 mM, 0.5 mM, 0.25 mM and 0.125 mM and with the respective concentration of Tween 80 and DMSO each at 0.63%, 0.32%, 0.16% and 0.08%. The same concentration was applied to four different wells of the same bacterial strain, resulting in four replicates for each concentration and strain. The treatment was incubated for 20 h at 37° C. at static conditions. After the treatment the supernatant was carefully removed and the well with the biofilm washed carefully for one time with 200 μL 0.9% saline solution. 200 μL saline solution was added and the biofilm was resuspended thoroughly. When fully homogenized then 20 μl, was used for the first dilution in 180 μL 0.9% saline solution, which was prepared in a second plate. This dilution was continued until dilution step 10E-5 and 100 μL of the 10E-4 and 10E-5 dilution plated on a TSA plate. The TSA plates were incubated at 37° C. for 24 h. The colonies on the plates were enumerated, the colony forming units per ml, of the dispensed biofilm and averages thereof and the log reduction in comparison with the untreated sample from the same wells plate calculated. Reduction of colony forming units goes hand in hand with the thickness of the biofilm and thus with the number bacteria that are present in the biofilm. Therefore, a significant reduction of colony forming units in the biofilm was defined at the value of log reduction >1 or more. This assay was repeated two times in two independent experiments)

[4] = system: Pseudomonas aeruginosa ATCC 27853 biofilm; assay: MBEC assay (48 h biofilm, CFU log reduction); type: cell-based; details: 20 h treatment, 0.125-1 mM tested
Procedure: as §4, §5

[5] = reduction of final OD600 by 90%, 24 h at 37° C., MHB-II, read-out: P. aeruginosa MIC90
[6] = reduction of final OD600 by 90%, 24 h at 37° C., MHB-II

Row | S. epidermidis MIC50 [1] | S. epidermidis MIC90 [1] [µM] | P. aeruginosa MIC90 [2, 6] [µM] | Structure (SMILES) | MIC50 [1] [µM] | MIC90 [1] [µM] | MIC50 ([2]; 24 h at 37° C., MHB-II) [µM] | MIC90 [2, 5] [µM] | S. epidermidis MBEC mM with log reduction ≥1 [3] [mM] | P. aeruginosa MBEC mM with log reduction ≥1 [4] [mM] | P. aeruginosa MIC50 ([2]; 24 h at 37° C., MHB-II) [µM] | MIC90 ([2]; Example 2b, FIG. 1, no MIC90 detected in the tested range, read-out: Average MIC90 P. aeruginosa (Pa)) [µM]
1 |  |  |  | Clc1ccc(SSc2ccc(Cl)cc2)cc1 [Bis (4-chlorophenyl) disulfide, Bis(4-chlorophenyl) disulfide] | 10 (≈ 2.87 µg/mL) | 30 (≈ 8.62 µg/mL) | 20 (≈ 5.74 µg/mL) | 30 (≈ 8.62 µg/mL) | >1 | >1 |  | 
2 |  |  |  | Fc1ccc(SSc2ccc(F)cc2)cc1 [Bis (4-fluorophenyl) disulfide, Bis(4-fluorophenyl) disulfide] | 60 (≈ 15.3 µg/mL) | 60 (≈ 15.3 µg/mL) | 125 (≈ 31.8 µg/mL) | 250 (≈ 63.6 µg/mL) | >1 | >1 | 130 | > 4000
3 | 125 µM and 130 µM | 250 | 4000 | [O-][S+](Sc1ccc(F)cc1)c1ccc(F)cc1 (centres unmarked) [Bis (4-fluorophenyl) thiosulfinate, Bis(4-fluorophenyl) thiosulfinate] |  |  |  |  | >1 | >1 | 1000 | 
4 | 250 µM | 2000 | 2000 | O=S(=O)(Sc1ccc(F)cc1)c1ccc(F)cc1 [Bis (4-fluorophenyl) thiosulfonate, Bis(4-fluorophenyl) thiosulfonate] |  |  |  |  | >1 | >1 | 2000 | 
5 |  |  |  | CCCSSCCC [Di-n-propyl disulfide, reference compound] | > 4000 | > 4000 | > 4000 | > 4000 | >1 | >4 |  | 
6 | 250 µM | 250 | 250 | CCCSS(=O)(=O)CCC [Di-n-propyl thiosulfonate, reference compound] |  |  |  |  | 0.25 | 1 | 250 | 

Row | Structure (SMILES) | S. epidermidis MIC50 [1] | S. epidermidis MIC90 [1] [µM] | P. aeruginosa MIC90 [2, 6] [µM] | MIC50 [1] [µM] | MIC90 [1] [µM] | MIC50 ([2]; 24 h at 37° C., MHB-II) [µM] | MIC90 [2, 5] [µM] | S. epidermidis MBEC mM with log reduction ≥1 [3] [mM] | P. aeruginosa MBEC mM with log reduction ≥1 [4] [mM] | P. aeruginosa MIC50 ([2]; 24 h at 37° C., MHB-II) [µM] | MIC90 ([2]; Example 2b, FIG. 1, no MIC90 detected in the tested range, read-out: Average MIC90 P. aeruginosa (Pa)) [µM]
7 | O=S(=O)(Sc1ccc(Cl)cc1)c1ccc(Cl)cc1 [Bis (4-chlorophenyl) thiosulfonate, Bis(4-chlorophenyl) thiosulfonate] | 30 µM | 60 | 2000 |  |  |  |  | >1 | >1 | 250 | 
8 | CC(C)SS(=O)(=O)C(C)C [Di-isopropyl thiosulfonate] | 2000 µM | 2000 | 2000 |  |  |  |  | >1 | >1 | 2000 | 
